Measurements published in ChEMBL document CHEMBL1201862, “PubChem BioAssay data set” (2004).
“And” between values parts separate entries of the source, which are not always exact repeats. Identical values can stand only once. The source made the active and inactive calls.

How the values were obtained:
[1] = target: Serine/threonine-protein phosphatase PP1-alpha catalytic subunit (Homo sapiens, UniProt P62136); test: PP1 phosphatase inhibitors, dose response, biochemical, fluorescence (AID 2394)
[2] = target: Serine/threonine-protein phosphatase (Homo sapiens, UniProt Q9BPW0); test: PP5 phosphatase inhibitors, dose response, biochemical, fluorescence (AID 2395)
[3] = target: T1, Replicative DNA helicase DnaB (Mycobacterium tuberculosis, UniProt P9WMR3); test: DnaB intein splicing inhibitors, dose response, biochemical, cell-free fluorescence (AID 449749); type: functional
T1 sequence (P9WMR3 whole entry): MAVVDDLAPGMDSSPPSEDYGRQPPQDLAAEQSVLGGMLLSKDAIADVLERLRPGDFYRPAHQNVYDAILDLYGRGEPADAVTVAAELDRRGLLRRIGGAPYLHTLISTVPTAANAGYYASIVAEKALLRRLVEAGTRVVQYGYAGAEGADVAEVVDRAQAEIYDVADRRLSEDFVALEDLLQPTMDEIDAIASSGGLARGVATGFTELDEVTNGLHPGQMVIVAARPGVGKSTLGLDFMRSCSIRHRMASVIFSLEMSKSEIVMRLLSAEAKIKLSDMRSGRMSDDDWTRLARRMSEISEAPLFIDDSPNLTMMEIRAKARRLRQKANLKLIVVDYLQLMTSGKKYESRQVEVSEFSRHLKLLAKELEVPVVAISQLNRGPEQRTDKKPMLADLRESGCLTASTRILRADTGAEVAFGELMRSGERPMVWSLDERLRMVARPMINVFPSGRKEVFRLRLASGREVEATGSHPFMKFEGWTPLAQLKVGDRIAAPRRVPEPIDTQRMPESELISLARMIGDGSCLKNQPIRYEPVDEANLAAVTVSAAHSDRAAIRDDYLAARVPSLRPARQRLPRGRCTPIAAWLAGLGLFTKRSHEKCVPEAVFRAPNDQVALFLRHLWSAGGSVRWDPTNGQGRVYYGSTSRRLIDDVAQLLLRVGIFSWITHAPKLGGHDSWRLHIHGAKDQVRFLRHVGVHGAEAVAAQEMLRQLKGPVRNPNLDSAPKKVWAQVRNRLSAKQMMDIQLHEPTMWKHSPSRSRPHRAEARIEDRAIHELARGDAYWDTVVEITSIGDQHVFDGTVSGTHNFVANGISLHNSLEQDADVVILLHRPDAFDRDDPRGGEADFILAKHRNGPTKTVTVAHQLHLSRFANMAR

Protein RecA = target: T2, Protein RecA (Mycobacterium tuberculosis, UniProt P9WHJ3); test: Fluorescence Cell-Free Homogeneous Dose Retest to Identify Inhibitors of RecA-Intein Splicing Activity. [Related pubchem assays (depositor defined):AID2097, AID2223, AID489010, AID492950]; type: functional
T2 sequence (P9WHJ3 whole entry): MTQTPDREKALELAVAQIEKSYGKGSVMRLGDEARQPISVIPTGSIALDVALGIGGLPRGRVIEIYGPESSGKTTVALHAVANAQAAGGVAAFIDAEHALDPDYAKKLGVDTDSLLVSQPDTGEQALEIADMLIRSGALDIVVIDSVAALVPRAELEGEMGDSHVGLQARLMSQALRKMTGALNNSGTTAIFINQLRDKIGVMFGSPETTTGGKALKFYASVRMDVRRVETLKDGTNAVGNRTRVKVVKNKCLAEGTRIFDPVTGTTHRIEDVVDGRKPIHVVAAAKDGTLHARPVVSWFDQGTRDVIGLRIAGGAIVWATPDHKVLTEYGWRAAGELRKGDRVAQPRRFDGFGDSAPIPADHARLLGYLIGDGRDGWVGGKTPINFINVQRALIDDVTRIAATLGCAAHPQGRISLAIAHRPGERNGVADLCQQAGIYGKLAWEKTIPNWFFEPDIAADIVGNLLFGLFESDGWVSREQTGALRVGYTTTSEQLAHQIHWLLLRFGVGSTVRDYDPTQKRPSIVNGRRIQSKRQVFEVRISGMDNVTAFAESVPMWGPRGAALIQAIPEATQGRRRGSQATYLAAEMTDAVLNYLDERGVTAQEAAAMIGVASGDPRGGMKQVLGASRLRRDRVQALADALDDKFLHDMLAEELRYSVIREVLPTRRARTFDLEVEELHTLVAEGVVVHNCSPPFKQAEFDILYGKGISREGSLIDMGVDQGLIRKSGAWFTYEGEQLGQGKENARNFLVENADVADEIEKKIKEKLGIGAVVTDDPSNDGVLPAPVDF

[4] = target: T3, Apoptotic protease-activating factor 1 (Homo sapiens, UniProt O14727); type: functional
T3 sequence (O14727 whole entry): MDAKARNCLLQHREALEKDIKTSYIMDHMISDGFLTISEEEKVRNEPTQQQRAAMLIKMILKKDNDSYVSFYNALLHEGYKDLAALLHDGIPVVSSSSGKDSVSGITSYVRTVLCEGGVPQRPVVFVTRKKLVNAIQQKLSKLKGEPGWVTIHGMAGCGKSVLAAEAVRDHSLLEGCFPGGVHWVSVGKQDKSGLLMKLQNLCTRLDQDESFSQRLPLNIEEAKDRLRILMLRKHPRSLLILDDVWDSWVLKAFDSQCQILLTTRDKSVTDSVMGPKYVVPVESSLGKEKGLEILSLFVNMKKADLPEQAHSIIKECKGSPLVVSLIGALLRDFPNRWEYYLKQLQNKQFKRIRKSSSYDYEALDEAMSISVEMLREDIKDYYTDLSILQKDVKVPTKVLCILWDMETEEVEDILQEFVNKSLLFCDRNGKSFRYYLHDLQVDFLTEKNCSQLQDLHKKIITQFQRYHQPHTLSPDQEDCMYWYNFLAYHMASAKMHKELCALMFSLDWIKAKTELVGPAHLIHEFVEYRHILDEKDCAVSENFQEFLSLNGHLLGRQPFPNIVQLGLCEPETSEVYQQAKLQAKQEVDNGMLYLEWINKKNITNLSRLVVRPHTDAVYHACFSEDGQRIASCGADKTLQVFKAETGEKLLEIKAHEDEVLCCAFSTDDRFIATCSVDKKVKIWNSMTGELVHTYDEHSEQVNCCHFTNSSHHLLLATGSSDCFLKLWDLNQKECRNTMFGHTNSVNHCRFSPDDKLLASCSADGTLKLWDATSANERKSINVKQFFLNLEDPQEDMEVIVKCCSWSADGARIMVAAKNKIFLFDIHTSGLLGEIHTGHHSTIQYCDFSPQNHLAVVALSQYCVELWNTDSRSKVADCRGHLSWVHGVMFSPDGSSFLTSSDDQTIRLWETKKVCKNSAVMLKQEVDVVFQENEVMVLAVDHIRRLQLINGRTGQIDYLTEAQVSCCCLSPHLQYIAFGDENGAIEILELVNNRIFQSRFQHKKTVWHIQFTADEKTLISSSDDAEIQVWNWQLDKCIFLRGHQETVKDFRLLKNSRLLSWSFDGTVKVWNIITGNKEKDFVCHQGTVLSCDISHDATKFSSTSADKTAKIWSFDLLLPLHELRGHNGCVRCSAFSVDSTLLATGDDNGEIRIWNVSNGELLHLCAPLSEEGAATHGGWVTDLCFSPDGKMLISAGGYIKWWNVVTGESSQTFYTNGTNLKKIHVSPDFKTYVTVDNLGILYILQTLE

Nonstructural protein 1 = Nonstructural protein 1 (Influenza A virus, UniProt Q194T2); type: functional, Influenza A virus (A/California/07/2009(H1N1))
[5] = microbe, parasite or virus in culture; type: functional; conditions: Mycobacterium tuberculosis
[6] = HEp-2 cell cytotoxicity, dose response, cytotoxicity control for RSV inhibitor project, HTS (AID 2410); type: functional; conditions: human respiratory syncytial virus
[7] = Luminescent dose response cell-based high throughput screening assay for inhibitors of the Janus kinase 2 mutant JAK2V617F. [Related pubchem assays: 1446 (Primary screen.), 1521 (Confirmation assay.), 1486 (Counter screen.)]; type: functional
Fibrinogen beta chain [8] = target: T4, Fibrinogen beta chain (Homo sapiens, UniProt P02675); test: Fluorescence polarization-based biochemical high throughput dose response assay to identify inhibitors that disrupt the binding of a cyclic peptide (Tn7) to the fibrin proteolytic product D-Dimer and fragment E complex [DD(E )].
T4 sequence (P02675 whole entry): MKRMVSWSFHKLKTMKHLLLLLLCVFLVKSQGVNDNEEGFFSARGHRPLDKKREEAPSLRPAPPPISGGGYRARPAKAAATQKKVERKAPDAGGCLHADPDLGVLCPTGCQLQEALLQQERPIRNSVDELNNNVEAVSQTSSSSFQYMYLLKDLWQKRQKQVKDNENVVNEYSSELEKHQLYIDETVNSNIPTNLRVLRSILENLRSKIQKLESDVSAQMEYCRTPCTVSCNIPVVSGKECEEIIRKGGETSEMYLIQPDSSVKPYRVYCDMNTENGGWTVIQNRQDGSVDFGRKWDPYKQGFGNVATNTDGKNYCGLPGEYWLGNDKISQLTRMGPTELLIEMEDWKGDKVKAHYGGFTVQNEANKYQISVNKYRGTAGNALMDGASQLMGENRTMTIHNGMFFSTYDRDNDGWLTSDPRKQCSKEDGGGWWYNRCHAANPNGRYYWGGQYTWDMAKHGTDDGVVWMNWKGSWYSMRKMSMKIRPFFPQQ

[9] = cytotoxicity toward Colo320 cells – cell-based, CellTiter-Glo luminescence, IC50, dose response (AID 1117334); type: functional; conditions: COLO 320
[10] = SNU-C1 cell viability reduction, dose response, CellTiter-Glo luminescence (AID 1117323); type: functional, cell-based
[11] = RKO cell viability reduction, dose response, CellTiter-Glo luminescence (AID 1117322); type: functional
[12] = CellTiter-Glo luminescent dose response of DLD-1 viability loss (AID 1117352); type: functional
Fibrinogen beta chain [13] = target: T4, Fibrinogen beta chain; test: Fluorescence polarization-based biochemical high throughput dose response assay to identify inhibitors that disrupt the binding of a cyclic peptide (Tn6) to the fibrin proteolytic product D-Dimer and fragment E complex [DD(E )].
[14] = Glucagon-like peptide 1 release potency, NCI-H716 cell line, dose-response, half-maximal inhibitory concentration (AID 1117344); type: functional, cell-based
Cytochrome P450 2D6 = Cytochrome P450 2D6 (Homo sapiens, UniProt P10635);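 further: CYP2D6 member of a cytochrome P450 panel assay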
[15] = half-maximal inhibitory concentration for glucagon-like peptide-1 release, STC-1 cell line, dose-response (AID 1117345); type: functional, cell-based
[16] = human group III sPLA2 inhibitors, dose response, biochemical, QFRET, IC50 (AID 743457);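 further: green fluorescence rise as the enzyme cleaves BODIPY PC-A2 in liposomes; potency for inhibition of the enzyme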
[17] = Concentration-dependent survival of SW480 colon cancer line, luminescence detection with CellTiter-Glo, half-maximal inhibitory concentration (AID 1117338); type: functional
[18] = cytotoxicity toward HCT116 cells – cell-based, CellTiter-Glo luminescence, IC50, dose response (AID 1117332); type: functional; conditions: HCT-116
H4 = test: Luminescence Cell-Based Dose Response HTS to Identify Activators of 5'UTR Stem-Loop Driven Prion Protein mRNA Translation in H4 Neuroglioblastoma Cells. [Related pubchem assays: 1829 (Project Summary), 1814 (Primary HTS)]; type: functional; conditions: Homo sapiens
[19] = Luminescence Cell-Based Dose Response HTS to Identify Activators of Luciferase Translation or Activity in H4 […] Cells. [Related pubchem assays: 1829 (Project Summary), 1814 (Primary HTS)]; type: functional
[20] = Luminescence Cell-Based Dose Confirmation HTS to Identify Activators of 5'UTR Stem-Loop Driven Alpha-Synuclein mRNA Translation in H4 Neuroglioblastoma Cells. [Related pubchem assays: 1829 (Project Summary), 1814 (Primary HTS)]; type: functional

Chain of Serine/threonine-protein phosphatase PP1-alpha catalytic subunit (P62136 whole entry): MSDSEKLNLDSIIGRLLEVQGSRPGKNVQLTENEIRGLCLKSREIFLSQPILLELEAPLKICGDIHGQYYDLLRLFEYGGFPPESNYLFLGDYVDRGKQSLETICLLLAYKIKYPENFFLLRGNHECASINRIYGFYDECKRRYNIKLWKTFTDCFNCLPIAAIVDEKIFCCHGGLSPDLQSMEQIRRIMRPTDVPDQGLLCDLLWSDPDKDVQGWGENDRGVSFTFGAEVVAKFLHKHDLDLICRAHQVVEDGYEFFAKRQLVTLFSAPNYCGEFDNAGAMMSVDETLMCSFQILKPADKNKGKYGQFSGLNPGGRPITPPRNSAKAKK
Chain of Cytochrome P450 2D6 (P10635 whole entry): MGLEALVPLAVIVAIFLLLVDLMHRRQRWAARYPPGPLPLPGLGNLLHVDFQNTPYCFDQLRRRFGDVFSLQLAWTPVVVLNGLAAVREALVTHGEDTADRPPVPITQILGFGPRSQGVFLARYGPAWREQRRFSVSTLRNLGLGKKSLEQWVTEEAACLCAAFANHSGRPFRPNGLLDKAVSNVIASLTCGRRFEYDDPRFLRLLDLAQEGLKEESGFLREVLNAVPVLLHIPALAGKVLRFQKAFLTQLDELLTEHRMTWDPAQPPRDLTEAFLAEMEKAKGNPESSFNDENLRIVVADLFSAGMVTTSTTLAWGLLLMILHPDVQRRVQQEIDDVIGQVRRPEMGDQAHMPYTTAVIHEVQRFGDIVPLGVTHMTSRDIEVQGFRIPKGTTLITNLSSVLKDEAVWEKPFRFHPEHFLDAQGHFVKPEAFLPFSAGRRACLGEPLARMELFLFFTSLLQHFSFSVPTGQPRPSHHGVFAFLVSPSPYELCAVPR
Chain of Nonstructural protein 1 (Q194T2 whole entry): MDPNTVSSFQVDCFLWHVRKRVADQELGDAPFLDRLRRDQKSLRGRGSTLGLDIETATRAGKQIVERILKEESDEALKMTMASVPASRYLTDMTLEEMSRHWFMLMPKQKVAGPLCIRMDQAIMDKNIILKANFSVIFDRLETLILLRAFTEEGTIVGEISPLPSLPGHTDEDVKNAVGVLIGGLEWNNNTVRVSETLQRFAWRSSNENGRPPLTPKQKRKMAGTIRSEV
Chain of Serine/threonine-protein phosphatase (Q9BPW0 whole entry): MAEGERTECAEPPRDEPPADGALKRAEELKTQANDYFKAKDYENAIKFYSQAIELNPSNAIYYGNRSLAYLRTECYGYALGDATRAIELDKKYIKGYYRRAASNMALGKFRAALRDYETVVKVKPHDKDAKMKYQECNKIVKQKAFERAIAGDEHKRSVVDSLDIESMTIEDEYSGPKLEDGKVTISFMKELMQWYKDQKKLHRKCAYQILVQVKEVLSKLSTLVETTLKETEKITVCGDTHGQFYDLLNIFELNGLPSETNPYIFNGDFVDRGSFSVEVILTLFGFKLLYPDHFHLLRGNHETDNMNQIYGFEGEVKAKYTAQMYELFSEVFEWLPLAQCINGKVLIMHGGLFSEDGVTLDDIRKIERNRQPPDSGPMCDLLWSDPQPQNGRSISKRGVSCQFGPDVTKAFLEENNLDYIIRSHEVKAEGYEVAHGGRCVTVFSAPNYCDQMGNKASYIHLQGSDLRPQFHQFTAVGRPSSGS

Cc1ccc(NC2=C(N3CCOCC3)C(=O)c3ccccc3C2=O)cc1
IC50 [1]: > 67 µM (not active)
IC50 [2]: 20.9 µM (not active)
AC50 [3]: 10.7 µM (active)
EC50 (Protein RecA): 15.7 µM (active)
IC50 [4]: 19.4 µM (active)
IC50 (Nonstructural protein 1): 7.74 µM (active)

O=C(CCl)NCc1cc(-c2ccc(Cl)cc2)no1
CC50 [5]: 9.8 µM (active)
CC50 [6]: 4.01 µM (active)
IC50 [7]: 1.23 µM (active)

C[n+]1cc2c3c(ccc2c2ccc4cc5c(cc4c21)OCO5)OCO3
IC50 (Fibrinogen beta chain [8]): > 83.1 µM (inactive)
IC50 [9]: 0.35 µM (active)
IC50 [10]: 0.316 µM (active)
IC50 [11]: 0.265 µM (active)
IC50 [12]: 0.576 µM (active)
IC50 (Fibrinogen beta chain [13]): 24.2 µM (inactive)
IC50 [14]: > 40 µM (inactive)
AC50 (Cytochrome P450 2D6): 31.6 µM (inconclusive) and 7.94 µM (inconclusive)
IC50 [15]: > 40 µM (inactive)
IC50 [16]: 51.8 µM (inactive)
IC50 [17]: 0.379 µM (active)
IC50 [18]: 0.525 µM (active)

O=C1C(c2ccccc2)=[N+]([O-])c2ccccc21
EC50 (H4): 20 µM (active)
IC50 [1]: 2.67 µM (active)
IC50 [2]: 10.3 µM (not active)
EC50 [19]: 36.4 µM (active)
IC50 [4]: 5.8 µM (active)
IC50 (Nonstructural protein 1): 45.5 µM (active)
EC50 [20]: 12.7 µM (active)
